Data from patent US5874461A, “Use of Nebivolol as an anti-atherogenic” (priority 1995, dated 1999).
Read-outs that look alike come from different tables or passages of the source.

Legend:
C6 glioma cells [1] = assay: Protection of C6 glioma cells from glutathione depletion-mediated oxidative stress (toxicity, LDH assay); type: cell-based
Source text: (§1) Competitive inhibition by glutamate of cystine uptake in certain cells leads to glutathione depletion and oxidative stress. This oxidative stress model has been described for glial C6 glioma cells (Kato et al., 1992. A mechanism for glutamate toxicity in the C6 glioma cells involving inhibition of cystine uptake leading to glutathione depletion. Neurosci. 48:903-914) and for the neuronal cell line N18RE105 (Murphy et al., 1989. Glutamate toxicity in a neuronal cell line involves inhibition of cystine transport leading to oxidative stress. Neuron 2:1547-1558).
(§2) Cell culture: The C6 glioma cell line (American Type Culture Collection, CCL 107) was cultivated in DMEM supplemented with 2 or 4 mM glutamine, 1 mM pyruvate and 5 or 10% heat-inactivated foetal calf serum. Cultures were maintained at 37° C. in an air/5~10% CO2, water saturated atmosphere.
(§3) Glutathione depletion and evaluation of drugs as antioxidants: Experiments were carried out with cultures plated at 30,000~50,000 cells/cm^2 in 24-well culture plates (for toxicity and lipid peroxide measurements) or at 136,000 cells/cm^2 in 96-well culture plates (for GSH determination). After 8-24 hr, the cultures were switched to culture medium in the absence or presence of the cystine uptake inhibitor glutamate at a final concentration of 10 mM. In order to test drugs for inhibition of oxidative stress, the drug was added together with glutamate (final concentration of solvent was 0.01% hydroxypropyl-β-cylodextrin, 0.1% DMSO). Intracellular glutathione levels were measured after 6~8 hr, lipid peroxides were measured after 14~20 hr, and toxicity and protection were analysed after 48 hr using an LDH assay according to the method of Bergmeyer and Bernt (UV-assay with pyruvate and NADH. In: Methods of Enzymatic Analysis. 1974. H. U. Bergmeyer, ed. Acad. Press, New York, 2nd Ed., pp 574-579).

human LDL = assay: In vitro oxidation of human LDL (Cu-induced conjugated diene formation at 234 nm); type: biochemical
Description: In vitro oxidation of human LDL Human venous blood was collected on EDTA (2.68 mM final concentration). Plasma was isolated by centrifugation. NaBr (37.3 mg/ml) was added and solubulized (final density 1.036 g/ml). Centrifuge tubes were first filled to a level corresponding to 2/3 of their maximal volume, further filled with a NaBr solution of 1.036 g/ml and then centrifuged for 18 hours at 45000 rpm in a 50 Ti rotor (Beckmann). After centrifugation, floating lipoproteins were discarded. The remaining solution was adjusted to a density of 1.055 g/ml. Filling of the centrifuge tubes and centrifugation were repeated as described above. After centrifugation, floating LDL was dialysed against a buffer containing 127 mM NaCl, 8 mM Na2 HPO4.2H2 O, 2.7 mM KCl and 1.47 mM KH2 PO4 at pH 7.4. After dialysis, LDL was filtered though a Millipore filter (0.45 μM) and protein content was determined. A dilution of 25 μg/ml was prepared with a millipored dialysis buffer. Oxidation was determined in a Pharmacia Ultraspec III spectrophotometer. Conjugated diene formation was registered at 234 nm. Two μl of a drug or solvent (DMSO) were added to Eppendorf tubes followed by 1 ml of LDL (25 μg/ml) and these substances were gently mixed and centrifuged for 1 min at 13000 g. The solution was pipetted in a Quartz cuvet that was thermostatised in the spectrophotometer at 37° C. After equilibration, the oxidation reaction was started by the addition of CuSO4 (final concentration 10 μM). Absorbance was measured every 3 minutes during the time course of the experiment. The absorbance at 234 nm was divided into three phases: a lag phase, a propagation phase and a decomposition phase (FIG. 1). The lag phase was defined as the intercept with the baseline of the tangent of the slope of the absorbance curve of the propagation phase. The rate of oxidation was defined as the tangent of the slope. Tmax was defined as the time required to attain the maximum absorbance between the propagation and the decomposition phase. The absorbance at tmax minus the absorbance at to was taken as an indicator of the total amount of dienes formed. To verify the reproducibility of the assay, a reference LDL sample was prepared and kept in darkness under nitrogen at 4° C. This reference sample was included in every oxidation experiment. LDL was isolated from 23 subjects. Plasma cholesterol ranged from 156 to 278 mg/dl (mean 213 mg/dl), triglycerides ranged from 47 to 328 mg/dl (mean 191 mg/dl) and phospholipids ranged from 178 to 327 mg/dl (mean 231 mg/dl).

C6 glioma cells [2] = assay: GSH content in C6 glioma cultures after glutamate; type: cell-based
Source text: as §1, §2, §3
Determination of GSH content in C6 glioma cultures: GSH levels were analysed by a micromethod, essentially as described by Vandeputte et al. (A microtiterplate assay for total glutathione and glutathione disulfide contents in cultured/isolated cells: performance study of a new miniaturised protocol. 1994. Cell Biol. Toxicol. 10:415-421), with a modification in the washing and homogenisation procedures. Cells (in 96-well plates) were washed with PBS, were homogenised in 50 μl 10 mM HCl containing 1.3% 5-sulfosalicylic acid, and the homogenate was centrifuged at 1200×g for 10 min at 4° C. Forty μl of the supernatant was transferred to a well of a 96-well plate and 200 μl reagent (1 mM 5,5'-dithiobis-(2-nitrobenzoic acid), 0.34 mM NADPH and 6.3 mM EDTA in 143 mM phosphate buffer pH 7.4) was added. After 5 min equilibration to room temperature the reaction was started by adding 40 μl glutathione reductase (8.5 IU/ml 143 mM phosphate buffer, 6.3 mM EDTA pH 7.4). NADPH oxidation was followed at 414 nm for 5 minutes with a Multiskan MCC/340 (Labsystems), and the change in absorbance (DA) per min was calculated. The glutathione content was deduced from a standard curve ranging from 0.2 to 2 nmol commercial GSH per test (DA/min plotted versus concentration).

C6 glioma cells [3] = assay: Fluorescence measurement of intracellular peroxides in C6 glioma cells after glutamate; type: cell-based
Source text: as §1, §2, §3
Fluorescence measurement of intracellular peroxides: Formation of intracellular peroxides was detected using 6-carboxy-2',7'-dichlorodihydrofluorescin diacetate, di(acetoxymethyl ester) (C-DCDHF, Molecular Probes). C-DCDHF was dissolved in DMSO at a concentration of 10 mM and stored at -70° C. under nitrogen. After exposure of the culture to the glutathione depleting agents, the cells were loaded with 10 μM C-DCDHF for one hour at 37° C. Medium was aspirated off, PBS was added to the cells, and plates were read in a Cytofluor II microplate reader (PerSeptive Biosystems). Excitation and emission wavelength were selected with a 485/530 nm filter pair. The results were expressed in relative fluorescence units/μg protein.

[4] = test system: primary embryonic hippocampal cultures; assay: In vitro neuroprotection against nitric oxide and superoxide radicals (inhibition of LDH release); type: cell-based, rats; conditions: for inhibition at 1 µM / inhibition at 0.1 µM: Rattus norvegicus, read-out: % neuroprotection, mean ± SD; for inhibition at 1 µM: 10^-6 M; for inhibition at 0.1 µM: 10^-7 M
Description: Primary embryonic hippocampal cultures were prepared essentially as described previously (Pauwels et al., Van Aschouw, H. P., Peeters, L., Moeremans, M., Leysen, J. E. (1992) Chronic treatment with sabeluzole protects cultured rat brain neurons from the neurotoxic effects of excitatory amino acids. Synapse, 12:271-280). Hippocampal formations of rats at embryonic day 17 were dissected and dissociated in 0.05% trypsin, 0.1 mg/ml DNase I in DMEM (Dulbecco Modified Eagle Medium). Heat-inactivated horse serum (HS) was added to a concentration of 4%, and the cells were centrifuged, washed with DMEM, and resuspended in DMEM/Ham's F12 (3:1) containing 10% HS. The cells were plated at a density of 4×10^5 cells/cm^2 in poly L-lysine (0.001%) precoated multiwell-24 plates. On day 1 in culture, the medium was changed to chemically defined CDM-R12 medium (DMEM-HEPES/Ham's F12 (3:1) containing 0.26% bovine serum albumin, 30 nM sodium selenite, 3 nM 3,3',5 triiodo-L-thyronine, 0.35 μM retinol, 0.3 μM retinol acetate, 2.3 μM DL-a-tocopherol, 2.1 μM DL-a-tocopherol acetate, 3.6 μM linolenic acid, 3.6 μM linoleic acid, 0.125% human transferrin, […], 57.7 nM corticosterone, 49 U/I insulin, 0.4 μM biotin, 10 μM L-carnitine, 83 μM D(+)-galactose, 3.3 μM glutathione, 10 μM ethanolamine, 0.1 mM putrescine; Romijn, H. J., van Huizen, F., Wolters, P. S. (1984) Towards an improved serum-free, chemically defined medium for long-term culturing of cerebral cortex tissue. Neurosci. Behav. Rev., 8:301-334). Acute and prolonged pretreatment of the, cultures was essentially as described previously (Pauwels et al., 1992). Drugs were dissolved, and diluted in 10% or 1% hydroxypropyl-β-cyclodextrin such that the final concentrations of the solvent in the acute and chronic exposures were 0.1% and 0.01% respectively. Compound A as used in the following examples is [(RRSR)+(RRRS)+(SSSR) +(SSRS)]-α-[[[2-(chroman-2-yl)-2-hydroxy-ethyl]amino]methyl]-6-hydroxy-2-chromanmethanol ethanedioate (1:1).
For acute treatment, drug, or solvent was added to the cultures on day 7. After 20 min the medium was replaced with 200 μl chemically defined DMEM medium (the same composition of CDM-R12 medium but without Ham's F12) (control), or chemically defined DMEM medium containing the oxidative stress trigger. Oxidative stress triggers used were 1 mM sodium nitroprusside (SNP, a nitric oxide radical generating compound), or 7.5-10 mM diethyldithiocarbamate (DDTC, a superoxide dismutase inhibitor) and the test compound.
For prolonged pretreatment experiments, drug (concentration range 0.1 nM-10 μM) was added to the serum-free medium on days 1 and 4 of the culture. On day 7, the cultures were washed once with DMEM, and incubated with 0.2 ml chemically defined DMEM medium for 2 h at 37° C. The cells were washed and the medium was replaced by 0.2 ml chemically defined DMEM medium (control), or chemically defined DMEM medium containing the oxidative stress trigger (se above).
For both the acute experiment and the prolonged pretreatment experiment, extracellular and intracellular LDH (lactate dehydrogenase) activities were measured spectrophotometrically at 340 nm with an EPOS Analyzer 5060, according to the method of Bergmeyer (Bergmeyer, H. U. (1974) Biochemical reagents. In: Methods of Enzymatic Analysis. H. U. Bergmeyer, eds. Academic Press, New York, 2nd Ed., pp. […]). Extracellular LDH activity in the culture medium and cytoplasmic LDH activity measured after lysis of the cells in 1 ml H2 O, were used to calculate total LDH activity and % released LDH. % Neuroprotection refers to % inhibition of LDH release, where oxidative stress trigger-induced LDH release is defined as 0% protection, and basal (control) level of LDH release is defined as 100% protection.
Neuronal primary hippocampal cultures were grown in CDM-R12 medium for 7 days. Test compounds were either administered on days 1 and 4 of culture (prolonged pretreatment) or on day 7 of culture (acute treament). […]

[5] = glutamate 10 mM, without or with compound 1 μM
[6] = DDTC trigger, prolonged pretreatment
[7] = SNP trigger, prolonged pretreatment

C[C@]12N[C@H](Cc3ccccc31)c1ccccc12 [MK801, reference compound]
cytoplasmic LDH release (glutamate toxicity) (C6 glioma cells [1]; data not shown): not prevented

Cc1c(C)c2c(c(C)c1O)CCC(C)(CCCC(C)CCCC(C)CCCC(C)C)O2 (stereo not drawn) [vitamin E, α-tocopherol, reference compound]
Tmax (human LDL; 20 μM vitamin E, compared with 2 μM hydroxymetabolites of nebivolol): close to the tmax for the 2 μM hydroxymetabolites of nebivolol
anti-oxidant effect (human LDL; concentration lower than 10 μM (results not shown)): did not show any anti-oxidant effect
antioxidative effect on human LDL (human LDL; in vitro): delay the oxidation of LDL
initial absorbance (human LDL; vitamin E): not affected
rate of oxidation (human LDL; vitamin E): not affected
total amount dienes (human LDL; vitamin E): not affected

Oc1ccc2c(c1)CCC(C(O)CNCC(O)C1CCc3ccccc3O1)O2 (stereo not drawn) [[(RSSS)+(RSRR)+(SRSS)+(SRRR)]-α-[[[2-(chroman-2-yl)-2-hydroxyethyl]amino]-methyl]-6-hydroxy-2-chroman-methanol ethanedioate (1:1)]
Tmax (human LDL; 2 μM, FIG. 2): increased
lag time (human LDL; 2 μM, FIG. 2): increased
rate of oxidation (human LDL; 2 μM, FIG. 2): decreased

N[C@@H](CCC(=O)O)C(=O)O [glutamate, reference compound]
intracellular glutathione levels (C6 glioma cells [2]; 10 mM glutamate, 6 hr or more): sharp reduction in intracellular glutathione levels
GSH content (C6 glioma cells [2]; [5]): 296 ± 26 pmol/well
increase in toxic intracellular peroxides (C6 glioma cells [3]; 10 mM glutamate): ~6 fold
Intracellular peroxides (mean ± SD, n) (C6 glioma cells [3]; [5]): 525 ± 57 Relative fluorescence units/μg
cytotoxicity at 10000 µM (C6 glioma cells [1]; Rattus norvegicus, C6 glioma, 48 h, read-out: LDH release, % of total LDH): 93.2 ± 1.3%

Oc1ccc2c(c1)CCC(C(O)CNCC(O)C1CCc3cc(O)ccc3O1)O2 (stereo not drawn) [[(SRSR)+(SRRS)+(RSSR)] -α,α'-iminobis(methylene)bis[6-hydroxy-2-chromanmethanol]]
Tmax (human LDL; 2 μM, FIG. 2): increased
lag time (human LDL; 2 μM, FIG. 2): increased
rate of oxidation (human LDL; 2 μM, FIG. 2): decreased

COc1ccccc1OCCNCC(O)COc1cccc2[nH]c3ccccc3c12 (stereo not drawn) [carvedilol, reference compound]
inhibition at 1 µM ([4]; DDTC trigger, acute treatment): < 25%
inhibition at 0.1 µM ([4]; DDTC trigger, acute treatment): < 25%
inhibition at 1 µM [4, 6]: < 25%
inhibition at 0.1 µM [4, 6]: < 25%
inhibition at 1 µM ([4]; SNP trigger, acute treatment): < 25%
inhibition at 0.1 µM ([4]; SNP trigger, acute treatment): < 25%
inhibition at 1 µM [4, 7]: < 25%
inhibition at 0.1 µM [4, 7]: < 25%
neuroprotection against DDTC or SNP ([4]; one or the other treatment paradigm): not observed
